One experiment addresses T1, CSK (Homo sapiens, UniProt P41240).
T1 construct: purchased Reaction Biology Europe GmbH
As to the kind of experiment: PanQinase kinase panel: CSK. The following applies: read-out: INHIBITORY EFFECT @ 1 uM: CSK. The format is biochemical. On the procedure:
(§1) Screening procedures were performed in accordance with the company's on-line protocol [accessed on-line Mar.
(§2) For each kinase, the median value of the cpm of three wells was defined as “low control” (n=3). This value reflects unspecific binding of radioactivity to the plate in the absence of a protein kinase but in the presence of the substrate. Additionally, for each kinase the median value of the cpm of three other wells was taken as the “high control,” i.e. full activity in the absence of any inhibitor (n=3). The difference between high and low control of each enzyme was taken as 100% activity.
(§3) As part of the data evaluation the low control of each kinase was subtracted from the high control value as well as from their corresponding “compound values”. The residual activity (in %) for each compound well was calculated by using the following formula: Res. Activity (%)=100×[(signal of compound−low control)/(high control−low control)].

The next experiment deals with T2, TXK (Homo sapiens, UniProt P42681).
T2 construct: purchased Reaction Biology Europe GmbH
T2 sequence (P42681 1-527): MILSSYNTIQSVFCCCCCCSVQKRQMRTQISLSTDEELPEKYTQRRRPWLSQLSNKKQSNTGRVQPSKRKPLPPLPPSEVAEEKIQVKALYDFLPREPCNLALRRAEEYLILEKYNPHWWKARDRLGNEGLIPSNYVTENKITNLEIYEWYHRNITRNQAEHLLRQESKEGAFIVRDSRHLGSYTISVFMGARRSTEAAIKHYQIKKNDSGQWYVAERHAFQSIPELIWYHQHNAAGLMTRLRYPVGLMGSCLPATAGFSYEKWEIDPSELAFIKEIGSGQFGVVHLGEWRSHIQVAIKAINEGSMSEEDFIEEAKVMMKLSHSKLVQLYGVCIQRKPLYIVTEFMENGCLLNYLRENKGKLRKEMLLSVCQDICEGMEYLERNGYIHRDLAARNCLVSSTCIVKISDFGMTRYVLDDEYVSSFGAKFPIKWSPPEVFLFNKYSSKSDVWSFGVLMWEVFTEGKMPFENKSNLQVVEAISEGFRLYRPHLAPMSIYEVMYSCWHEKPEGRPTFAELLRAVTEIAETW
Description: PanQinase kinase panel: TXK. The format is biochemical. The settings on record: read-out: INHIBITORY EFFECT @ 1 uM: TXK. On the procedure:
as §1, §2, §3

Another experiment addresses T3, EPHA6 (Homo sapiens, UniProt Q9UF33).
T3 construct: purchased Reaction Biology Europe GmbH
T3 sequence (Q9UF33 23-1036): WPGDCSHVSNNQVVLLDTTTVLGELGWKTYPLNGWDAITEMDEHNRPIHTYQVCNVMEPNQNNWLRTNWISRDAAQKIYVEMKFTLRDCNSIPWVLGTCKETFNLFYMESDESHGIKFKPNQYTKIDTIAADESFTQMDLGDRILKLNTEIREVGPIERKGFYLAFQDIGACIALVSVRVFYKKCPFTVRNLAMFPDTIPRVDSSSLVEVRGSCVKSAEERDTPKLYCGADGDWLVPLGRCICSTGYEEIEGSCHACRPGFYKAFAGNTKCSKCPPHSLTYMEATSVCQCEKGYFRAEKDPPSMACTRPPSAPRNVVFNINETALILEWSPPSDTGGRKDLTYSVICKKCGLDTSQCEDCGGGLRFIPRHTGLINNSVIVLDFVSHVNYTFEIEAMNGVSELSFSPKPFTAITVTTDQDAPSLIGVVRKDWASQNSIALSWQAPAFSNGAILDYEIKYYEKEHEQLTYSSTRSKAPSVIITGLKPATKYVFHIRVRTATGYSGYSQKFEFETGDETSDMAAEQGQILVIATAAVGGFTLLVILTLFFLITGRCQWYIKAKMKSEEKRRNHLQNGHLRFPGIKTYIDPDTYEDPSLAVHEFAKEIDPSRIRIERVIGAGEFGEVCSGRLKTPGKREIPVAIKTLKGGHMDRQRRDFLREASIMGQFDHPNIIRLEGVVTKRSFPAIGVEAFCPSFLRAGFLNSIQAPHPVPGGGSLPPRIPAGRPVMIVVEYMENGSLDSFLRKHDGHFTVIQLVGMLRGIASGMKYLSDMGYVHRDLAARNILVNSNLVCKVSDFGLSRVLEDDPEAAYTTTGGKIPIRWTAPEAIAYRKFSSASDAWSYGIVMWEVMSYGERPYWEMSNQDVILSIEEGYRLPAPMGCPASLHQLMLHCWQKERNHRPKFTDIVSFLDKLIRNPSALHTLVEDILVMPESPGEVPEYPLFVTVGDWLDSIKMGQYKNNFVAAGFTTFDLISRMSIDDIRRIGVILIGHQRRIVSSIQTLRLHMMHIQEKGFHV
As to the kind of experiment: PanQinase kinase panel: EPHA6. The experiment is classed as biochemical. The following applies: read-out: INHIBITORY EFFECT @ 1 uM: EPHA6. On the procedure: as §1, §2, §3

For another experiment, the system named is MWCL-1. Description: Apoptosis assay (annexin V flow cytometry) in Waldenstrom's Macroglobulinemia cells. The experiment is classed as cell-based, human. The following applies: for IC50: Homo sapiens, read-out: Apoptosis IC50 (μM) in single-mutant WM Cell Lines (MWCL-1); for promoting apoptosis in WM cells (MWCL-1) compared with ibrutinib or zanubrutinib alone: in words. On the procedure:
Waldenström's Macroglobulinemia cells (MWCL-1) and the bone marrow stromal cells (BMSCs; HS-27A) were used in this study. The MWCL-1 is a lymphoplasmacytic lymphoma established from the bone marrow aspirate of a patient diagnosed with Waldenström's Macroglobulinemia. It was provided by Dr Stephen M. Ansell (MAYO file number 2021-121; 200 First Street SW, Rochester, Minnesota). This cell line was cultured in RPMI-1640 (Fisher Scientific) containing 10% fetal bovine serum (FBS) (Sigma Aldrich, St Louis, MO), 100U/ml of Penicillin-Streptomycin (Gibco™, ThermoFisher Scientific). The HS-27A bone marrow stromal cells were obtained from ATCC. They were maintained in RPMI 1640 (Fisher Scientific) supplemented with 100U/ml of Penicillin-Streptomycin (Gibco™, ThermoFisher Scientific) and 10% FBS (TakaraBio). Cells were cultured in a 37° C. tissue culture CO2 incubator.
For studies with compounds using a co-culture system of MWCL-1 and BMSCs, BMSCs were cultured in a 96-, 48- or 24-well plates and cultured until the 90% confluence was reached. […] After 1 hour, the MWCL-Icells were added to the BMSC to create a co-culture system. The cells were co-incubated for 72 hours. After incubation time, cell viability, apoptosis, and IgM release were measured.
For studying the effect of compounds on inducing apoptosis of Waldenström Macroglobulinemia cells (MWCL-1). Cells were washed with PBS, resuspended in Annexin V binding buffer (Biolegend), and stained with Alexa Fluor 647 annexin V (Biolegend), Propidium Iodide (BD Pharmigen), and CD45 antibody (Biolegend) for 15 minutes at RT and analyzed by flow cytometry. Data were collected on an CytoFLEX S Flow Cytometer (Beckman Coulter) and analysed with FCS Express Software (De Novo Software). Annexin V positive cells were considered apoptotic.

In another experiment the target is T4, MAP3K11 (Homo sapiens, UniProt Q16584).
T4 construct: purchased Reaction Biology Europe GmbH
Description: PanQinase kinase panel: MAP3K11. The format is biochemical. On the procedure:
as §1, §2
As part of the data evaluation the low control of each kinase was subtracted from the high control value as well as from their corresponding “compound values”.

[1] abbreviates: read-out: INHIBITORY EFFECT @ 1 uM: MAP3K11.

Read-outs that look alike come from different tables or passages of the source.

The term IC50 denotes the concentration that gives 50% inhibition.

T4 sequence (Q16584 whole entry): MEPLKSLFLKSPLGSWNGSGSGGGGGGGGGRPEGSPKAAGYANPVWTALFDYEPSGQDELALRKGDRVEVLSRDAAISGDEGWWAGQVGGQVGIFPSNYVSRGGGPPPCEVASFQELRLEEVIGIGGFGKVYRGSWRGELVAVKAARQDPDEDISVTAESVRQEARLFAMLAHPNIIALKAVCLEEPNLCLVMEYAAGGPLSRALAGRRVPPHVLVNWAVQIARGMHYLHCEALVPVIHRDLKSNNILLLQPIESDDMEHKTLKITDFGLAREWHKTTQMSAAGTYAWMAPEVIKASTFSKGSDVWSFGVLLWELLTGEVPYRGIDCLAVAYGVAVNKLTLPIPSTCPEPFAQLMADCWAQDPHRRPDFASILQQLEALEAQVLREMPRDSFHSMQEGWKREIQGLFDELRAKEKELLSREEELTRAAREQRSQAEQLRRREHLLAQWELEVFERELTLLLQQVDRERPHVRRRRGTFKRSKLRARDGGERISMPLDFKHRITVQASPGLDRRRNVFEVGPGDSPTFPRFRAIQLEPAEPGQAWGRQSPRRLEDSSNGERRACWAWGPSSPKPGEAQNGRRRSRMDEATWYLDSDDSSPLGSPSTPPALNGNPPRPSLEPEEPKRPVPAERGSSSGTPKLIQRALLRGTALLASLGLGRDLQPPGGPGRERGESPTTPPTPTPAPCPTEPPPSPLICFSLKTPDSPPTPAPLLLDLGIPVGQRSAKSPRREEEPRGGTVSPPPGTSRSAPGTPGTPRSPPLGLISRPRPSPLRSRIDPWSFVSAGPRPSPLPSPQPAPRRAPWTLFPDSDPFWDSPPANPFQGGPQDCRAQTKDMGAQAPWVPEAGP
T1 sequence (P41240 whole entry): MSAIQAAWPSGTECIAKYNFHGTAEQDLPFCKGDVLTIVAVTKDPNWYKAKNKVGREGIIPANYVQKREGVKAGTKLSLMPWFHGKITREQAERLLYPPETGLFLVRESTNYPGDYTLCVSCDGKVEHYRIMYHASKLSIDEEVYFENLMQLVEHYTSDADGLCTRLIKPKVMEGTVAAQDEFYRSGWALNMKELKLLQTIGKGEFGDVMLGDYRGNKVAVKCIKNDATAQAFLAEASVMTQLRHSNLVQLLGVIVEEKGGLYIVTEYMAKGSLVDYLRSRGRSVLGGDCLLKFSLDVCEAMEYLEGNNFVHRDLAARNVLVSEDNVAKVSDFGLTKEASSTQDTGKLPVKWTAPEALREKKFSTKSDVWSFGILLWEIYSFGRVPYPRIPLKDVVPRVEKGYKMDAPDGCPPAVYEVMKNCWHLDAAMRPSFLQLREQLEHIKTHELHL

For `O=C(c1ccc(Oc2ccccc2)cc1Cl)c1c[nH]c2ncnc(N[C@@H]3CC[C@@H](CO)OC3)c12` [ARQ-531, (2-chloro-4-phenoxyphenyl) (4-(((3R,6S)-6-(hydroxymethyl)tetrahydro-2H-pyran-3-yl)amino)-7H-pyrrolo[2,3-d]pyrimidin-5-yl) methanone], the inhibition at 1 µM on CSK lay within 90 to 100%; on TXK, 90 to 100%; on EPHA6, 50 to 69%.
Take `Cc1cccnc1[C@H]1CCC[C@@H](c2ncccc2C)N1CCN1CCN(C(=O)c2ccc(-c3cc4c(-c5cccc(NC(=O)c6ccccc6)c5C)ncnc4[nH]3)cc2)CC1` [Compound I-10, N-(3-(6-(4-(4-(2-((2R,6S)-2,6-bis(3-methylpyridin-2-yl)piperidin-1-yl)ethyl)piperazine-1-carbonyl)phenyl)-7H-pyrrolo[2,3-d]pyrimidin-4-yl)-2-methylphenyl)benzamide]: in the experiment on MWCL-1 (class symbol), the IC50 lay in the range of 0.1 to 2 µM. Besides, the “promoting apoptosis in WM cells (MWCL-1) compared with ibrutinib or zanubrutinib alone” value with MWCL-1 is “more effective in promoting apoptosis”. Moreover, the inhibition at 1 µM at CSK is under 50%; on TXK, under 50%; on MAP3K11 (at 1 μM, read-out: inhibition of MAP3K11), 50 to 89%; on MAP3K11 (setting [1]) it was 50 to 69%; at EPHA6 it was under 50%.
Consider `Cc1cc(-c2ccnc(Nc3cnn(CCN4[C@@H](c5ncccc5C)CCC[C@H]4c4ncccc4C)c3)n2)ccc1CNC(=O)N1CC(OC(C)C)C1` [Compound I-11], for which the IC50 in the experiment with MWCL-1 (class symbol) fell in the range of 0.1 to 2 µM. Also, in the experiment with MWCL-1, the “promoting apoptosis in WM cells (MWCL-1) compared with ibrutinib or zanubrutinib alone” value was “more effective in promoting apoptosis”.
In the case of `COc1ccc(F)cc1C(=O)NCc1ccc(-c2nn([C@@H](C)C(F)(F)F)c(N)c2C(N)=O)cc1` [LOXO-305, pirtobrutinib], the inhibition at 1 µM at CSK was 70 to 89%; on TXK it was 50 to 69%; on MAP3K11 (setting [1]) it was under 50%; on EPHA6, under 50%.
Consider `C=CC(=O)N1CCC([C@@H]2CCNc3c(C(N)=O)c(-c4ccc(Oc5ccccc5)cc4)nn32)CC1` [Zanubrutinib, (7S)-2-(4-phenoxyphenyl)-7-(1-prop-2-enoylpiperidin-4-yl)-4,5,6,7-tetrahydropyrazolo[1,5-a]pyrimidine-3-carboxamide], for which the IC50 in the experiment on MWCL-1 (numeric) is 17.7 µM. The figures for the inhibition at 1 µM at TXK, on MAP3K11 (setting [1]) and on EPHA6 were 90 to 100%, under 50% and under 50%, respectively.
